This is an account of results in paper PMC2743475 (Bioorganic & medicinal chemistry, 2009).

In data set [1] the test system is PC-3M prostate cancer cells. As to conditions: PC-3M cells, spheroid disaggregation; cited from earlier work.
Data set [2] deals with PC-3M prostate cancer cells. As to conditions: mice; cited from earlier work.
Data set [3] deals with PC-3M prostate cancer cells. As to conditions: PC-3M cells, MTT; cited from earlier work.
The conditions of data set [4]: in vivo, up to 200 mg/kg; cited from earlier work.
In a further data set the test system is prostate cancer cells. As to conditions: even at 200 µM in vitro; cited from earlier work.
In another data set the target is Recombinant GSK-3β (Homo sapiens, UniProt P49841). Description: in vitro GSK-3β inhibitory assay using Tau [pS396] phosphoELISA kit.
Recombinant GSK-3β, sequence (P49841 whole entry): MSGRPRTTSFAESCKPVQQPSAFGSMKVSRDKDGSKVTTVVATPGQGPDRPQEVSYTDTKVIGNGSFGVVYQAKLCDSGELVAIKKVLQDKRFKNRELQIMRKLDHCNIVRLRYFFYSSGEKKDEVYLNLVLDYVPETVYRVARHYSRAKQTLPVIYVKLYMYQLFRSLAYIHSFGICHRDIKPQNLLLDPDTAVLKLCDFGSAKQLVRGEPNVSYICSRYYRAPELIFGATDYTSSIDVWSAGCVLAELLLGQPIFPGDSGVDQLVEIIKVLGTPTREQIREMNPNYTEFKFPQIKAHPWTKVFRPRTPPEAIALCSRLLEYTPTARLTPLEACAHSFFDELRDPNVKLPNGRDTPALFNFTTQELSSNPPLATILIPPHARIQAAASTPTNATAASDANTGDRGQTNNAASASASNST

`O=C1NC(=O)/C(=C/c2ccc(O)cc2)N1` [Compound 1, (Z)-5-(4-hydroxybenzylidene)-hydantoin]: the “in vitro anti-invasive properties / invasion” value in data set [1] is “potent”. In data set [2], the “cytotoxic effects at the test doses” value was “without apparent cytotoxic effects”, the “formation of tumor micrometastases in distant organs” value is recorded as “inhibited” and the orthotopic tumor growth result was “decreased”. Also, the “in vitro anti-growth / proliferation” value in data set [3] is “potent”.

Consider `CCSc1ccc(/C=C2\NC(=O)NC2=O)cc1` [Compound 2, (Z)-5-(4-(ethylthio)benzylidene)-hydantoin], for which the “in vitro anti-invasive properties / invasion” value in data set [1] is reported as “potent”. Further, in data set [2], the “cytotoxic effects at the test doses” value is “without apparent cytotoxic effects”, the “formation of tumor micrometastases in distant organs” value is on record as “inhibited” and the orthotopic tumor growth result is “decreased”. Also, the “in vitro anti-growth / proliferation” value in data set [3] is on record as “potent”.

Regarding `CCN(CC)c1ccc(/C=C2\NC(=O)NC2=O)cc1` [Compound 3], the CNS-depressant effects entry in data set [4] is recorded as “did not show CNS-depressant effects”. Further, the cytotoxicity result with prostate cancer cells was “lack of cytotoxicity”.

As for `COc1cccc(/C=C2\NC(=O)NC2=O)c1` [Compound 4], on Recombinant GSK-3β, the IC50 is 14.1 ± 1.9 µM.

In general, IC50 refers to the point on the concentration scale where inhibition reaches its midpoint.
